Patent US8957032B2, “Inhibition of gliadin peptides” (Alba Therapeutics Corporation, priority 2008, dated 2015)
Ends that are not written are not given here. * marks the point of attachment. FITC = O=C1OC2(c3ccc(O)cc3Oc3cc(O)ccc32)c2ccc(NC(=S)*)cc21

Experiments:
CaCO2 cell monolayer = assay: Permeability of a CaCO2 cell monolayer to a gliadin fragment; type: cell-based
Excerpt: (§1) The inventors have discovered that peripheral blood mononuclear cells (PBMCs) secrete signals that increase epithelial monolayer permeability on response to stimulation with lipopolysaccharide […] and pepsin/trypsin treated gliadin (PTG). These secreted signals are present in PBMC culture supernatant, and they increase permeability of CaCO2 cell monolayers to Lucifer yellow when presented to the basolateral aspect of these cells. These permeability changes are inhibited by treatment of the cells with peptide permeability inhibitors of the invention (FIGS. 5A, 5B, 6A, 6B, 7A, 7B, 8A and 8B). The inventors have also discovered that specific peptides within the PTG mixture are capable of crossing epithelial cell monolayers in vitro, and that this peptide specific mechanism can be inhibited by peptide permeability inhibitors of the invention (FIGS. 3 and 4).

CaCO2 cells = assay: Lucifer yellow permeability of CaCO2 cells exposed basolaterally to PBMC culture supernatants; type: cell-based; conditions: donors 00022, 00023, 00064, 00065; for Effect on baseline permeability to Lucifer yellow: control and untreated PBMC supernatant, measured after 72 hours; for Effect on permeability changes induced by LPS treated PBMC supernatant / Effect on permeability changes induced by PTG treated PBMC supernatant: Lucifer yellow measured after 72 hours
Protocol: After formation of tight junctions CaCO2 cells were exposed basolaterally to control supernatant (control), untreated PBMC supernatant (PBMC sup), LPS treated PBMC supernatant (PBMC-LPS) and PTG treated PBMC supernatant (PBMC-PTG). Lucifer yellow permeability was measured after 72 hours (day 3).
After formation of tight junctions CaCO2 cells were exposed basolaterally to PBMC supernatants as described above. […]
as §1

PBMCs = assay: Cytokine expression in PBMCs treated with PTG or LPS (ELISA); type: cell-based, human; conditions: PTG 1 mg/ml or LPS 1 μg/ml
Protocol: PBMCs were suspended in RPMI medium supplemented with 5% heat inactivated human AB serum, and 2×10^5 cells were plated in each well of a 96 well plate. Cells were incubated at 37° C. with PTG (1 mg/ml) or LPS (1 μg/ml) in the presence or absence of test compounds being examined for the ability to suppress cytokine production. Supernatant samples were harvested following treatment, and cytokines were assayed by ELISA (R&D Systems).

intestinal tissue = conditions: ex vivo human tissue and mice; background section; cited from earlier work
[1] = inhibitor added apically after 48 hours (day 2)
[2] = inhibitor added apically on day 0

GGVLVQPG [SEQ ID NO:1]
Effect on increase in permeability to gliadin peptide PYPQPQLPY (SEQ ID NO:163) (CaCO2 cell monolayer; FIG. 3, apical exposure to gliadin peptide, apical treatment with inhibitor): blocked | Effect on increase in permeability induced by gliadin peptide (CaCO2 cell monolayer; FIG. 4, apical exposure to FITC-C6-PYPQPQLPY, 13-mer gliadin peptide SEQ ID NO:164 named in legend): blocked | Effect on baseline permeability to Lucifer yellow (CaCO2 cells; [1]): abolished | Effect on baseline permeability to Lucifer yellow (CaCO2 cells; [2]): abolished | Effect on permeability changes induced by LPS treated PBMC supernatant (CaCO2 cells; [1]): significantly reduced | Effect on permeability changes induced by PTG treated PBMC supernatant (CaCO2 cells; [1]): significantly reduced | Effect on permeability changes induced by LPS treated PBMC supernatant (CaCO2 cells; [2]): no significant effect | Effect on permeability changes induced by PTG treated PBMC supernatant (CaCO2 cells; [2]): no significant effect | Effect on expression of IL-6, IL-8, MIP-1α and Gro-α induced by LPS and PTG (PBMCs): not reduced | Effect on increased expression of GM-CSF and IL-16 induced by LPS and PTG (PBMCs): inhibited | Gliadin induced reduction in intestinal Rt (resistance) (intestinal tissue): inhibits | Peak of F-actin increment induced by gliadin (intestinal tissue): blocks

FITC-C6-PYPQPQLPY ({FITC-C6}-PYPQPQLPY) [gliadin peptide, FITC-labelled, reference compound]
Permeability of the monolayer (CaCO2 cell monolayer; FIG. 4, apical exposure of the monolayer to the gliadin peptide): increase in permeability

PYPQPQLPY (listed as Triticum sp.) [SEQ ID NO:163, gliadin peptide]
Permeability of the monolayer to the gliadin peptide (CaCO2 cell monolayer; FIG. 3, apical exposure of the monolayer to the gliadin peptide): increase in permeability
